Data reported in patent US12241097B2, “Compositions and methods for adoptive cell therapy for cancer” (MEMORIAL SLOAN KETTERING CANCER CENTER, priority 2017, dated 2025).
Each block holds one compound with its values, some of them ahead of it.

Experiments:
[1] = system: SET2 cells; experiment: SET2 viability with prodrug and supernatant from CPG2-secreting HEK293t cells; format: cell-based; settings: comparable to AMS at around 100 nM
Procedure: SET2 cells were exposed to increasing concentrations of AMS (square) or glut-AMS with media alone (− control, triangle) or supernatant from CPG2-secreting HEK293t cells (circle). Cell viability was measured by CellTitre-Glo® luminescence assay.
(§1) The HA epitope tag permitted staining of surface-level CPG2 in cells expressing either the secreted or transmembrane forms of the enzyme (FIG. 22D). […] Cell viability was measured at 48 hours by CellTitre-Glo® luminescence.

[2] = system: Jurkat T cells; experiment: Jurkat viability with prodrug and supernatant from CPG2-secreting HEK293T cells; format: cell-based, human; settings: for cell viability with CPG2 supernatant: 48 hours, control media did not
Procedure: (§2) The in vitro cytotoxicity of AMS (structure 1c) and its prodrug variant (structure 1a) was tested against a variety of cell lines using a CellTitre Glo® assay (Promega, Madison, WI). […] Moreover, co-treatment with the prodrug and supernatant from CPG2-transfected HEK293T cells (see Example 3) led to cytotoxicity approaching that of the free drug (50 nM), consistent with CPG2-mediated cleavage of the prodrug to release the active parent drug. […] In contrast, AMS prodrug 1a was not activated by HEK293T cells expressing CPG intracellularly, which likely attributed to poor cell-penetrance of the prodrug due to the free bis-anionic gluatamate moiety.
Jurkat T cells were exposed to increasing concentrations of AMS (circle) or Pro-AMS with media alone (triangle) or supernatant from CPG2-secreting HEK293T cells (square). Cell viability was measured at 48 hours by CellTitre-Glo® luminescence assay.
Jurkat T cells were exposed to increasing concentrations of ZD2767P with media alone (triangle) or supernatant from CPG2-secreting HEK293T cells (square). Cell viability was measured at 48 hours by CellTitre-Glo® luminescence assay.

[3] = system: HEK293T cells expressing CPG2; experiment: viability of HEK293T cells expressing CPG2 variants exposed to prodrug; format: cell-based, human
Procedure: as §2
Expression of CPG2 without a signal peptide (CPG2nosigp) was employed as a control. HEK293t cells stably transfected with CPG2 variants were exposed to P-AMS ([…]) for 48 hours and analyzed by bright field microscopy (FIG. 9A). Cells were exposed to varying concentrations of P-AMS and cell viability was analyzed at 48 hr post treatment (FIG. 9B).
as §1

[4] = system: Jurkat T cells; experiment: Jurkat viability with P-AMS and purified recombinant CPG2; format: cell-based, human; settings: Jurkat viability at 48 hours
Procedure: FIG. 4 provides exemplary data showing activation of P-AMS (see FIG. 2) by recombinant CPG2 expressed and purified from E. coli. (A) Human Jurkat T cells were incubated with or without P-AMS in the presence of increasing concentration of purified CPG2. Cell viability was measured at 48 hours by CellTitre-Glo luminescence. (B) Recombinant CPG2 was exposed to various concentrations of glutamated AMS prodrug. Following incubation at 37° C. (0.5, 1, 2, and 4 hr.), the reaction was combined with Amplex® Red (converts free glutamate to a fluorescent species) and fluorescent emission was analyzed using a fluorescence multiwell plate scanner.
The CPG2-pET151 vector was transformed into BL21 star E. coli cells and induced with IPTG. Bacteria were homogenized in a French Press and purified by affinity chromatography over Ni++ beads using standard protocols. Imidazole was exchanged via PBS dialysis and protein was purified via desalting spin columns. The expressed and purified CPG2 was assayed to confirm that the active enzyme was a potent converter of glutamated prodrugs. […] Pro-AMS was activated by recombinant CPG2 in vitro. Human Jurkat T cells were incubated with or without P-AMS in the presence of increasing concentration of purified CPG2. Cell viability of the Jurkat cells was measured at 48 hours by CellTitre-Glo® luminescence. […]

[5] = system: SET2 cells; experiment: SET2 viability with ceph-AMS and Beta-lactamase supernatant; format: cell-based; settings: comparable to AMS at around 100 nM
[6] = system: primary T-cells; experiment: in vitro cytotoxicity, primary T cells; format: cell-based, human
[7] = system: Skov-3; experiment: cell viability, Skov-3; format: cell-based, human
[8] = system: myeloid leukemia cell line SET2; experiment: cytotoxicity, SET2 (CellTitre Glo); format: cell-based; settings: unit inferred, read-out: IC50 (cell selectivity data), ceph-AMS
[9] = system: HEK293T; experiment: in vitro cytotoxicity, HEK293T; format: cell-based, human; settings: HEK293-t; unit inferred; read-out: IC50 (cell selectivity data), ceph-AMS
[10] = system: PC9 cells; experiment: PC9 viability, CellTitre-Glo, 48 hours; format: cell-based, human
Procedure: FIG. 14 provides exemplary data showing that Human T cells, but not cancer cells, are resistant to Erlotinib. (A) Human Jurkat T cells (red circle) and human non-small cell lung carcinoma cell lines PC9 (black square) and HCC827 (blue triangle) were treated with increasing concentrations of the receptor tyrosine kinase inhibitor Erlotinib. […] Cell viability was measured at 48 hours by CellTitre-Glo® luminescence.
FIG. 14 provides exemplary data showing that Human T cells, but not cancer cells, are resistant to Erlotinib. Human Jurkat T cells, primary T cells and human non-small cell lung carcinoma cell lines PC9 and HCC827 were treated with increasing concentrations of the receptor tyrosine kinase inhibitor Erlotinib. […] PC9 cells were incubated in the presence of Erlotinib, P-Erlotinib, or P-Erlotinib in the presence of purified CPG2. Cell viability was measured at 48 hours by CellTitre-Glo® luminescence.

[11] = system: lung adenocarcinoma cells (HCC827); experiment: coculture of 293t^CPGTM cells with HCC827 plus erlotinib prodrug; format: cell-based; settings: 120 hr, flow cytometry
Procedure: FIG. 15 provides exemplary data showing the pro-drug activity of 293T cells expressing transmembrane CPG2. GFP+293t^CPGTM cells were co-cultured with lung adenocarcinoma cells (HCC827) at various ratios (293t^CPGTM:HCC827) and the erlotinib prodrug (p-erlotinib) was added. (A) Cells were analyzed at 120 hour by flow cytometry and % GFP was calculated. (B) Ratio of 293t^CPGTM cells to HCC827 cells was calculated for each cell ratio.
The retroviral constructs encoding the anti-CD19 CAR and transmembrane CPG2 enzyme described above were transduced into 293T cells to test the conversion activity of transmembrane CPG2 for an Erlotinib prodrug. GFP+293t^CPGTM cells were co-cultured with lung adenocarcinoma cells (HCC827) at various ratios (293t^CPGTM:HCC827) and the erlotinib prodrug (p-erlotinib) was added. Cells were analyzed at 120 hr. by flow cytometry (FIG. 15A) and the percentage of GFP cells and the ratio of 293t^CPGTM cells to HCC827 cells was calculated for each cell ratio (FIG. 15B).

[12] = system: HCC827; experiment: HCC827 viability with Erlotinib; format: cell-based, human
[13] = system: Jurkat (T cell); experiment: in vitro cytotoxicity, Jurkat; format: cell-based, human; settings: T cell lines (Jurkat)

IC50 ([2]; Homo sapiens, with CPG2 supernatant, read-out: IC50, co-treatment with supernatant from CPG2-transfected HEK293T cells): 0.05 µM
SMILES: NS(=O)(=O)OC[C@H]1O[C@@H](n2cnc3c(NC(=O)N[C@@H](CCC(=O)O)C(=O)O)ncnc32)[C@H](O)[C@@H]1O [P-AMS, ((9-((2R,3R,4S,5R)-3,4-dihydroxy-5-((sulfamoyloxy)methyl)tetrahydrofuran-2-yl)-9H-purin-6-yl)carbamoyl)-L-glutamic Acid]
cell viability with CPG2 supernatant [1]: significant decrease in cell viability
cell viability with CPG2 supernatant [2]: significant decrease in cell viability
cell death of HEK293T cells expressing CPG2 ([3]; cell-secreted and transmembrane CPG2, 48 hours, control construct did not): significant cell death
activation by HEK293T cells expressing CPG intracellularly ([3]; intracellular CPG): not activated
activation by recombinant CPG2 [4]: activated

SMILES: Nc1ncnc2c1ncn2[C@@H]1O[C@H](COS(=O)(=O)NCC2=C(C(=O)O)N3C(=O)[C@@H](NC(=O)Cc4cccs4)[C@H]3SC2)[C@@H](O)[C@H]1O [ceph-AMS]
cell viability with Beta-lactamase supernatant [5]: significant decrease in cell viability
IC50 ([6]; Human T cell, unit inferred, read-out: IC50 (cell selectivity data), ceph-AMS): > 1.25 µM
Selective Index [7]: 3.6
IC50 ([7]; unit inferred, read-out: IC50 (cell selectivity data), ceph-AMS): > 1.25 µM
IC50 [8]: ~2.2 µM
IC50 [9]: 2 µM

SMILES: C#Cc1cccc(N(Cc2ccc(NC(=O)N[C@@H](CCC(=O)O)C(=O)O)cc2)c2ncnc3cc(OCCOC)c(OCCOC)cc23)c1 [P-Erlotinib]
toxicity of prodrug alone ([10]; PC9, 1 μM, 48 hours): no toxicity
activity of prodrug cleaved by purified CPG2 ([10]; PC9, with purified CPG2): comparable activity to the active drug
killing after conversion by transmembrane CPG2 [11]: kills the target cancer cell

SMILES: O=C(O)CC[C@H](NC(=O)Oc1ccc(N(CCI)CCI)cc1)C(=O)O [ZD2767P, reference compound]
cell viability with CPG2 supernatant [2]: significant decrease in cell viability

SMILES: C#Cc1cccc(Nc2ncnc3cc(OCCOC)c(OCCOC)cc23)c1 [Erlotinib, reference compound]
cell death with increasing concentrations [12]: significant cell death
response to increasing concentrations ([6]; primary T cells): resistance
response to increasing concentrations [13]: resistance
cell death with increasing concentrations ([10]; PC9): significant cell death
